# Reference: US20120219615A1, “Therapeutic Use of a TLR Agonist and Combination Therapy” (The Trustees of the University of Pennsylvania, priority 2010, published 2012)
# Test system: G-CSF, MCP-1, MIP-1β, TNFα
# Test: Phase I clinical study: pharmacodynamic response, plasma immune mediators (MAP)
# Assay type: in vivo
# Conditions: human, s.c., first dose
# Description: Study Procedures: VTX-2337 was administered weekly via subcutaneous injection on Days 1, 8, and 15 of a 28-day dosing cycle for two cycles. Using a modified Fibonacci dose-escalation scheme, successive cohorts received doses ranging from 0.1 mg/m^2 to 3.9 mg/m^2 of VTX-2337. Plasma samples were collected for pharmacokinetic analysis after the first dose of the first treatment cycle and for pharmacodynamic analyses after the first dose of the first and second treatment cycles.
# To evaluate the pharmacodynamic (PD) response to VTX-2337, blood was collected at 0, 4, 8, 24 hours after subcutaneous administration of the first dose of the first cycle of VTX-2337. Plasma levels of immune mediators were quantified using the human multiple analyte panel (MAP), version 1.8 (Rules Based Medicine). […] Levels of mediators in plasma collected from 9 healthy volunteers are shown for comparison to the oncology population. […]
smiles,measurement,setting,value
"CCCN(CCC)C(=O)C1=Cc2ccc(-c3ccc(C(=O)N4CCCC4)cc3)cc2N=C(N)C1 [VTX-2337, 2-amino-N,N-dipropyl-8-(4-(pyrrolidine-1-carbonyl)phenyl)-3H-benzo[b]azepine-4-carboxamide]",G-CSF plasma level,"Cohort 1 (0.1 mg/m^2), 0 Hr",9.7 ± 1.9 pg/mL
same,MCP-1 plasma level,"Cohort 1 (0.1 mg/m^2), 0 Hr",247 ± 62.7 pg/mL
same,MIP-1β plasma level,"Cohort 1 (0.1 mg/m^2), 0 Hr",201 ± 73.8 pg/mL
same,TNFα plasma level,"Cohort 1 (0.1 mg/m^2), 0 Hr",11.4 ± 4.4 pg/mL
same,G-CSF plasma level,"Cohort 1 (0.1 mg/m^2), 4 Hr",8.6 ± 1.6 pg/mL
same,MCP-1 plasma level,"Cohort 1 (0.1 mg/m^2), 4 Hr",223 ± 58.8 pg/mL
same,MIP-1β plasma level,"Cohort 1 (0.1 mg/m^2), 4 Hr",196 ± 71.9 pg/mL
same,TNFα plasma level,"Cohort 1 (0.1 mg/m^2), 4 Hr",10.5 ± 2.6 pg/mL
same,G-CSF plasma level,"Cohort 1 (0.1 mg/m^2), 8 Hr",11.9 ± 4.4 pg/mL
same,MCP-1 plasma level,"Cohort 1 (0.1 mg/m^2), 8 Hr",280 ± 97.0 pg/mL
same,MIP-1β plasma level,"Cohort 1 (0.1 mg/m^2), 8 Hr",204 ± 74.0 pg/mL
same,TNFα plasma level,"Cohort 1 (0.1 mg/m^2), 8 Hr",10.3 ± 4.0 pg/mL
same,G-CSF plasma level,"Cohort 1 (0.1 mg/m^2), 24 Hr",9.2 ± 2.5 pg/mL
same,MCP-1 plasma level,"Cohort 1 (0.1 mg/m^2), 24 Hr",250 ± 85.0 pg/mL
same,MIP-1β plasma level,"Cohort 1 (0.1 mg/m^2), 24 Hr",207 ± 73.8 pg/mL
same,TNFα plasma level,"Cohort 1 (0.1 mg/m^2), 24 Hr",10.2 ± 3.6 pg/mL
same,G-CSF plasma level,"Cohort 2 (0.2 mg/m^2), 0 Hr",7.8 ± 3.2 pg/mL
same,MCP-1 plasma level,"Cohort 2 (0.2 mg/m^2), 0 Hr",245 ± 167 pg/mL
same,MIP-1β plasma level,"Cohort 2 (0.2 mg/m^2), 0 Hr",230 ± 84.0 pg/mL
same,TNFα plasma level,"Cohort 2 (0.2 mg/m^2), 0 Hr",9.7 ± 5.7 pg/mL
same,G-CSF plasma level,"Cohort 2 (0.2 mg/m^2), 4 Hr",11.5 ± 7.8 pg/mL
same,MCP-1 plasma level,"Cohort 2 (0.2 mg/m^2), 4 Hr",235 ± 84.6 pg/mL
same,MIP-1β plasma level,"Cohort 2 (0.2 mg/m^2), 4 Hr",239 ± 74.0 pg/mL
same,TNFα plasma level,"Cohort 2 (0.2 mg/m^2), 4 Hr",10.8 ± 5.0 pg/mL
same,G-CSF plasma level,"Cohort 2 (0.2 mg/m^2), 8 Hr",19.0 ± 16.5 pg/mL
same,MCP-1 plasma level,"Cohort 2 (0.2 mg/m^2), 8 Hr",298 ± 100 pg/mL
same,MIP-1β plasma level,"Cohort 2 (0.2 mg/m^2), 8 Hr",247 ± 84.7 pg/mL
same,TNFα plasma level,"Cohort 2 (0.2 mg/m^2), 8 Hr",10.5 ± 6.0 pg/mL
same,G-CSF plasma level,"Cohort 2 (0.2 mg/m^2), 24 Hr",15.4 ± 9.0 pg/mL
same,MCP-1 plasma level,"Cohort 2 (0.2 mg/m^2), 24 Hr",301 ± 159 pg/mL
same,MIP-1β plasma level,"Cohort 2 (0.2 mg/m^2), 24 Hr",280 ± 115 pg/mL
same,TNFα plasma level,"Cohort 2 (0.2 mg/m^2), 24 Hr",12.4 ± 6.1 pg/mL
same,G-CSF plasma level,"Cohort 3 (0.4 mg/m^2), 0 Hr",12.7 ± 6.0 pg/mL
same,MCP-1 plasma level,"Cohort 3 (0.4 mg/m^2), 0 Hr",129 ± 30.0 pg/mL
same,MIP-1β plasma level,"Cohort 3 (0.4 mg/m^2), 0 Hr",172 ± 59.0 pg/mL
same,TNFα plasma level,"Cohort 3 (0.4 mg/m^2), 0 Hr",9.0 ± 4.9 pg/mL
same,G-CSF plasma level,"Cohort 3 (0.4 mg/m^2), 4 Hr",9.5 ± 0.9 pg/mL
same,MCP-1 plasma level,"Cohort 3 (0.4 mg/m^2), 4 Hr",137 ± 30.7 pg/mL
same,MIP-1β plasma level,"Cohort 3 (0.4 mg/m^2), 4 Hr",215 ± 65.6 pg/mL
same,TNFα plasma level,"Cohort 3 (0.4 mg/m^2), 4 Hr",10.8 ± 3.3 pg/mL
same,G-CSF plasma level,"Cohort 3 (0.4 mg/m^2), 8 Hr",63.8 ± 60.1 pg/mL
same,MCP-1 plasma level,"Cohort 3 (0.4 mg/m^2), 8 Hr",251 ± 87.9 pg/mL
same,MIP-1β plasma level,"Cohort 3 (0.4 mg/m^2), 8 Hr",213 ± 88.8 pg/mL
same,TNFα plasma level,"Cohort 3 (0.4 mg/m^2), 8 Hr",9.6 ± 3.1 pg/mL
same,G-CSF plasma level,"Cohort 3 (0.4 mg/m^2), 24 Hr",15.8 ± 3.5 pg/mL
same,MCP-1 plasma level,"Cohort 3 (0.4 mg/m^2), 24 Hr",99.5 ± 6.9 pg/mL
same,MIP-1β plasma level,"Cohort 3 (0.4 mg/m^2), 24 Hr",173 ± 67.4 pg/mL
same,TNFα plasma level,"Cohort 3 (0.4 mg/m^2), 24 Hr",10.0 ± 2.9 pg/mL
same,G-CSF plasma level,"Cohort 4 (0.8 mg/m^2), 0 Hr",13.2 ± 8.9 pg/mL
same,MCP-1 plasma level,"Cohort 4 (0.8 mg/m^2), 0 Hr",260 ± 150 pg/mL
same,MIP-1β plasma level,"Cohort 4 (0.8 mg/m^2), 0 Hr",165 ± 63.9 pg/mL
same,TNFα plasma level,"Cohort 4 (0.8 mg/m^2), 0 Hr",16.7 ± 12.6 pg/mL
same,G-CSF plasma level,"Cohort 4 (0.8 mg/m^2), 4 Hr",49.8 ± 80.3 pg/mL
same,MCP-1 plasma level,"Cohort 4 (0.8 mg/m^2), 4 Hr",1037 ± 1920 pg/mL
same,MIP-1β plasma level,"Cohort 4 (0.8 mg/m^2), 4 Hr",450 ± 641 pg/mL
same,TNFα plasma level,"Cohort 4 (0.8 mg/m^2), 4 Hr",22.0 ± 14.6 pg/mL
same,G-CSF plasma level,"Cohort 4 (0.8 mg/m^2), 8 Hr",137 ± 124 pg/mL
same,MCP-1 plasma level,"Cohort 4 (0.8 mg/m^2), 8 Hr",673 ± 386 pg/mL
same,MIP-1β plasma level,"Cohort 4 (0.8 mg/m^2), 8 Hr",287 ± 177 pg/mL
same,TNFα plasma level,"Cohort 4 (0.8 mg/m^2), 8 Hr",19.0 ± 10.6 pg/mL
same,G-CSF plasma level,"Cohort 4 (0.8 mg/m^2), 24 Hr",35.7 ± 14.7 pg/mL
same,MCP-1 plasma level,"Cohort 4 (0.8 mg/m^2), 24 Hr",267 ± 104 pg/mL
same,MIP-1β plasma level,"Cohort 4 (0.8 mg/m^2), 24 Hr",183 ± 55.9 pg/mL
same,TNFα plasma level,"Cohort 4 (0.8 mg/m^2), 24 Hr",17.5 ± 8.7 pg/mL
